Laboratory results taken from patent US6207404A, “Coumarin-based CYP3A fluorescent assay reagents” (Gentest Corporation, priority 1999, dated 2001).
pIC50: −log10 of the molar value.

How the values were obtained:
[1] = system: human CYP2B6; details: Code et al. 1997; Morse and Lu 1998; cited from earlier work
[2] = system: other human P450s; details: Code et al. 1997; Morse and Lu 1998; cited from earlier work
[3] = system: panel of cDNA-expressed human P450 enzymes; details: Ono et al. (1996); cited from earlier work
[4] = system: CYP3A4; details: in words; Crespi et al. 1997; cited from earlier work
[5] = target: T1, human CYP3A4 (Homo sapiens, UniProt P08684); assay: Enzyme kinetics of substrate turnover with cDNA-expressed CYP3A4 (fluorometric); type: biochemical
Procedure: The evaluation of compounds of Formula I were initially performed by measuring the kinetics of turnover using cDNA-expressed CYP3A4. In most instances, Vmax and Km values are important for the optimization of the assay conditions and for setting the parameters for inhibition experiments. Fluorometric assays for the turnover of compounds of Formula I by CYP3A4 were performed based on a modification of the method by Crespi et al. Anal Biochem. 248, 188-190, (1997), (described below).
Example Compound I. Assays were conducted in 96 well microtiter plates (Corning COSTAR, cat. no. 3915). The substrate, compound I, was prepared in acetonitrile. After cofactors addition, the plates were prewarmed to 37° C. Incubations were initiated by the addition of prewarmed buffer and enzyme. The enzymes were commercially available, baculovirus/insect cell expressed human CYP3A4 (SUPERSOMES®, GENTEST Corporation). The amount of enzyme added per well was 1 pmole. […] Fluorescence per well was measured using a BMG FLUOstar Model 403 plate scanner controlled with an IBM-compatible computer. The metabolite was measured using an excitation wavelength of 410 nm and emission wavelength of 538 nm. Data was exported and analyzed using an Excel spreadsheet. The activity was quantified by comparing to a standard curve of 7-hydroxy-4-trifluoromethyl coumarin.

[6] = system: panel of cDNA-expressed human P450 enzymes; assay: Selectivity of dealkylation in a panel of cDNA-expressed human P450 enzymes; type: biochemical
From the text: The selectivity of various P450 isoforms for dealkylation of compound I was examined using a panel of commercially available human cDNA-expressed enzymes. A substrate that is selective for a single P450 isoform (substrate is catalytically turned over by a single P450 isoform) is a desirable trait in that its activity may be examined within a heterogeneous mixture of enzymes, for example, in human liver microsomes. […] Compound I is therefore a more useful substrate for probing CYP3A activity in a heterogeneous mixture than the previous substrate BzRes. These advantages permit the specific detection of low levels of a preselected cytochrome P450 enzyme (e.g., 3A4) contained in various types of samples, e.g., tissue samples, microsomes, and so forth.
Example Compound I. Assays were conducted as described in (1) above except: incubation time was 20 min.; enzymes were commercially available, baculovirus/insect cell expressed human P450s (SUPERSOMES®, GENTEST Corporation); and the amount of enzyme added per well was 10 pmole with the exception of 2.5 pmole for CYP3A enzymes.

[7] = Solubility noted in enzyme kinetics table; type: physicochemical; details: at >200 uM
[8] = target: T1, human CYP3A4
[9] = Quantum yield of the fluorescent product; type: physicochemical; details: relative to the product of BzRes
[10] = target: T1, human CYP3A4; assay: biochemical; details: 37° C., 20 minutes

T1 sequence (P08684 whole entry): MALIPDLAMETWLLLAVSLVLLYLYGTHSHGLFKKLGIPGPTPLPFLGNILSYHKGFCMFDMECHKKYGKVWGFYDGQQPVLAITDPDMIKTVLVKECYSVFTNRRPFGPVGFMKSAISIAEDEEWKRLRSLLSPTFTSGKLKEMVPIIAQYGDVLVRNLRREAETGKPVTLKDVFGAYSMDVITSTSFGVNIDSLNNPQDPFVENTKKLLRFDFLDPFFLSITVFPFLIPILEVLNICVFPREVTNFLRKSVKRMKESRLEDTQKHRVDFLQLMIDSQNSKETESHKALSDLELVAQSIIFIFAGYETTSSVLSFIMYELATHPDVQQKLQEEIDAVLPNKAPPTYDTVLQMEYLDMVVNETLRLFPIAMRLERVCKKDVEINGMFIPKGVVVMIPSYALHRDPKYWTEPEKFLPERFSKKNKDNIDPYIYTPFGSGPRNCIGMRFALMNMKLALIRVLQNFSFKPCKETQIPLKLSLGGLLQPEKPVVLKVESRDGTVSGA

## CCOc1ccc2c(C(F)(F)F)cc(=O)oc2c1 [7-Ethoxy-4-trifluoromethylcoumarin]
[1]
  O-dealkylation by human CYP2B6: O-dealkylated
[2]
  O-dealkylation by other human P450s: O-dealkylated

## O=c1ccc2nc3ccc(OCc4ccccc4)cc3oc-2c1 [Benzyloxyresorufin, 7-benzyloxyresorufin]
[3]
  metabolism by other human cytochromes P450: significantly metabolized by other human cytochromes P450
[4]
  enzymatic turnover: low enzymatic turnover
  specificity: poor specificity

## O=c1cc(C(F)(F)F)c2ccc(OCc3ccccc3)cc2o1 [Compound I, 7-Benzyloxy-4-trifluoromethylcoumarin]
[5]; cDNA-expressed CYP3A4, at 40 uM substrate
  Vmax (at 40 uM): 1.5 min⁻¹
[5]; human, cDNA-expressed CYP3A4, 1 pmole/well, 37° C., 45 minutes
  Km at 0.75 h: > 200 µM
[6]; 20 min, 10 pmole/well (2.5 pmole for CYP3A enzymes)
  selectivity of dealkylation in panel of human P450 enzymes (FIG. 1): selective for CYP3A4
[6]; CYP1A1
  rank of CYP1A1 in dealkylation of the substrate: second best enzyme
[7]
  solubility (remark to Km >200 uM): exceeds solubility
[8]
  IC50 values with compound I as the substrate compared with BzRes: tend to yield lower IC50 values

## O=c1cc(C(F)(F)F)c2ccc(O)cc2o1 [Compound II, 7-hydroxy-4-trifluoromethylcoumarin]
[9]
  quantum yield of product relative to the product of benzyloxyresorufin: greater quantum yield

## CC[C@H]1OC(=O)[C@H](C)[C@@H](O[C@H]2C[C@@](C)(OC)[C@@H](O)[C@H](C)O2)[C@H](C)[C@@H](O[C@@H]2O[C@H](C)C[C@H](N(C)C)[C@H]2O)[C@](C)(O)C[C@@H](C)C(=O)[C@H](C)[C@@H](O)[C@]1(C)O [Erythromycin]
[10]; CYP3A4 IC50, substrate BzRes, substrate BzRes
  pIC50: 5.77
[10]; CYP3A4 IC50, substrate I, substrate compound I (100 uM)
  pIC50: 5.39
